Tests used:
Type in all cases: in vivo
Set-up in all cases: key: 0 is no effect; 10 is complete control
[1] = tested on: duck salad (Heteranthera limosa); experiment: Test B flood test
Outline: (§1)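 Flood test on plants grown to the 2-leaf stage; treated plants kept in greenhouse twelve to sixteen days, then visually rated against controls on a 0 (no effect) to 10 (complete control) scale.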

rice (Oryza sativa) = experiment: Test B flood test
Outline: as §1

[2] = tested on: bamyardgrass (Echinochloa crus-galli); experiment: Test B flood test
Outline: as §1

[3] = tested on: smallflower flatsedge (Cyperus difformis); experiment: Test B flood test
Outline: as §1

wild oat (Avena fatua) = experiment: Test B pre-/postemergence
Outline: (§2)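 Scored visually 0 (none) to 10 (complete control) against untreated plants after twelve to sixteen greenhouse days. Test chemicals, formulated in surfactant-containing non-phytotoxic solvent, applied to soil after planting and, separately, onto 1- to 4-leaf (2–18 cm) plants.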

[4] = tested on: blackgrass (Alopecurus myosuroides); experiment: Test B pre-/postemergence
Outline: as §2

[5] = Rate 62 g/ha, Postemergence (flood test)
[6] = Rate 125 g/ha, Postemergence, flood test
[7] = Rate 250 g/ha, Postemergence (flood test species)
[8] = Rate 500 g/ha, Postemergence (flood test species)

SMILES | Plant response rating, Ducksalad [1, 5] | Plant response rating, Ducksalad [1, 6] | Plant response rating, Ducksalad [1, 7] | Plant response rating, Rice (rice (Oryza sativa); [5]) | Plant response rating, Rice (rice (Oryza sativa); [6]) | Plant response rating, Rice (rice (Oryza sativa); [7]) | Plant response rating, Barnyardgrass [2, 5] | Plant response rating, Barnyardgrass [2, 6] | Plant response rating, Barnyardgrass [2, 7] | Plant response rating, S. Flatsedge [3, 5] | Plant response rating, S. Flatsedge [3, 6] | Plant response rating, S. Flatsedge [3, 7] | Plant response rating, Wild oats (wild oat (Avena fatua); Rate 62 g/ha, Postemergence) | Wild oats plant response rating (wild oat (Avena fatua); Rate 62 g/ha, Preemergence) | Plant response rating, Wild oats (wild oat (Avena fatua); Rate 125 g/ha, Postemergence) | Wild oats plant response rating (wild oat (Avena fatua); Rate 125 g/ha, Preemergence) | Plant response rating, Wild oats (wild oat (Avena fatua); Rate 250 g/ha, Postemergence) | Plant response rating, Wild oats (wild oat (Avena fatua); Rate 250 g/ha, Preemergence) | Plant response rating, Blackgrass ([4]; Rate 62 g/ha, Postemergence) | Blackgrass plant response rating ([4]; Rate 62 g/ha, Preemergence) | also measured
Cc1cnc(-c2ccc(Cl)cc2)nc1Cn1ccc(C(F)(F)F)n1 [Compound 6] | 0 | 0 | 0 | 1 | 2 | 2 | 0 | 1 | 2 | 3 | 5 | 7 | 0 | 0 | 3 | 0 | 3 | 2 | 0 | 0 | Plant response rating, Ducksalad [1, 8]: 6; Plant response rating, Rice (rice (Oryza sativa); [8]): 3; Plant response rating, Barnyardgrass [2, 8]: 3; Plant response rating, S. Flatsedge [3, 8]: 7; Plant response rating, Wild oats (wild oat (Avena fatua); Rate 500 g/ha, Postemergence): 3; Plant response rating, Wild oats (wild oat (Avena fatua); Rate 500 g/ha, Preemergence): 3; Plant response rating, Blackgrass ([4]; Rate 125 g/ha, Postemergence): 2; Blackgrass plant response rating ([4]; Rate 125 g/ha, Preemergence): 0; Plant response rating, Blackgrass ([4]; Rate 250 g/ha, Postemergence): 2; Plant response rating, Blackgrass ([4]; Rate 250 g/ha, Preemergence): 0; Plant response rating, Blackgrass ([4]; Rate 500 g/ha, Postemergence): 2; Plant response rating, Blackgrass ([4]; Rate 500 g/ha, Preemergence): 4
Cc1cnc(-c2ccc(C(F)(F)F)cc2)nc1Cn1cnc(C(F)(F)F)c1 [Compound 10] | 1 | 1 | 3 | 0 | 2 | 2 | 1 | 2 | 3 | 6 | 9 | 9 | 2 | 0 | 2 | 1 | 2 | 2 | 1 | 1 | Plant response rating, Ducksalad [1, 8]: 5; Plant response rating, Rice (rice (Oryza sativa); [8]): 3; Plant response rating, Barnyardgrass [2, 8]: 4; Plant response rating, S. Flatsedge [3, 8]: 9; Plant response rating, Wild oats (wild oat (Avena fatua); Rate 500 g/ha, Postemergence): 3; Plant response rating, Wild oats (wild oat (Avena fatua); Rate 500 g/ha, Preemergence): 4; Plant response rating, Blackgrass ([4]; Rate 125 g/ha, Postemergence): 1; Blackgrass plant response rating ([4]; Rate 125 g/ha, Preemergence): 2; Plant response rating, Blackgrass ([4]; Rate 250 g/ha, Postemergence): 3; Plant response rating, Blackgrass ([4]; Rate 250 g/ha, Preemergence): 2; Plant response rating, Blackgrass ([4]; Rate 500 g/ha, Postemergence): 3; Plant response rating, Blackgrass ([4]; Rate 500 g/ha, Preemergence): 3
Cc1cnc(-c2ccc(C(F)(F)F)cc2)nc1Cn1cc(I)cn1 [Compound 12] | 0 | 1 | 1 | 1 | 2 | 3 | 2 | 2 | 3 | 4 | 6 | 8 | 3 | 1 | 3 | 2 | 4 | 4 | 2 | 1 | Plant response rating, Ducksalad [1, 8]: 2; Plant response rating, Rice (rice (Oryza sativa); [8]): 3; Plant response rating, Barnyardgrass [2, 8]: 3; Plant response rating, S. Flatsedge [3, 8]: 8; Plant response rating, Wild oats (wild oat (Avena fatua); Rate 500 g/ha, Postemergence): 5; Plant response rating, Wild oats (wild oat (Avena fatua); Rate 500 g/ha, Preemergence): 4; Plant response rating, Blackgrass ([4]; Rate 125 g/ha, Postemergence): 3; Blackgrass plant response rating ([4]; Rate 125 g/ha, Preemergence): 4; Plant response rating, Blackgrass ([4]; Rate 250 g/ha, Postemergence): 4; Plant response rating, Blackgrass ([4]; Rate 250 g/ha, Preemergence): 6; Plant response rating, Blackgrass ([4]; Rate 500 g/ha, Postemergence): 4; Plant response rating, Blackgrass ([4]; Rate 500 g/ha, Preemergence): 6
Cc1cnc(-c2ccc(C(F)(F)F)cc2)nc1Cn1nc(C(F)(F)F)cc1C [Compound 13] | 0 | 1 | 2 | 0 | 0 | 0 | 2 | 2 | 3 | 2 | 4 | 4 | 3 | 3 | 3 | 5 | 4 | 7 | 3 | 2 | Plant response rating, Ducksalad [1, 8]: 3; Plant response rating, Rice (rice (Oryza sativa); [8]): 1; Plant response rating, Barnyardgrass [2, 8]: 3; Plant response rating, S. Flatsedge [3, 8]: 5; Plant response rating, Wild oats (wild oat (Avena fatua); Rate 500 g/ha, Postemergence): 4; Plant response rating, Wild oats (wild oat (Avena fatua); Rate 500 g/ha, Preemergence): 9; Plant response rating, Blackgrass ([4]; Rate 125 g/ha, Postemergence): 3; Blackgrass plant response rating ([4]; Rate 125 g/ha, Preemergence): 4; Plant response rating, Blackgrass ([4]; Rate 250 g/ha, Postemergence): 5; Plant response rating, Blackgrass ([4]; Rate 250 g/ha, Preemergence): 4; Plant response rating, Blackgrass ([4]; Rate 500 g/ha, Postemergence): 5; Plant response rating, Blackgrass ([4]; Rate 500 g/ha, Preemergence): 9
Cc1cnc(-c2ccc(C(F)(F)F)cc2)nc1Cn1ccc(C(F)(F)C(F)(F)F)n1 [Compound 14] | 2 | 2 | 2 | 4 | 4 | 5 | 4 | 5 | 5 | 8 | 8 | 8 | 0 | 0 | 1 | 0 | 3 | 0 | 1 | 0 | Plant response rating, Ducksalad [1, 8]: 3; Plant response rating, Rice (rice (Oryza sativa); [8]): 5; Plant response rating, Barnyardgrass [2, 8]: 6; Plant response rating, S. Flatsedge [3, 8]: 9; Plant response rating, Wild oats (wild oat (Avena fatua); Rate 500 g/ha, Postemergence): 3; Plant response rating, Wild oats (wild oat (Avena fatua); Rate 500 g/ha, Preemergence): 2; Plant response rating, Blackgrass ([4]; Rate 125 g/ha, Postemergence): 2; Blackgrass plant response rating ([4]; Rate 125 g/ha, Preemergence): 0; Plant response rating, Blackgrass ([4]; Rate 250 g/ha, Postemergence): 3; Plant response rating, Blackgrass ([4]; Rate 250 g/ha, Preemergence): 0; Plant response rating, Blackgrass ([4]; Rate 500 g/ha, Postemergence): 3; Plant response rating, Blackgrass ([4]; Rate 500 g/ha, Preemergence): 3
Cc1cnc(-c2ccc(OC(F)(F)F)cc2)nc1Cc1cccc(C(F)(F)F)c1 [Compound 16] | 0 | 0 | 1 | 1 | 1 | 3 | 2 | 3 | 4 | 1 | 2 | 2 | 0 | 0 | 0 | 1 | 1 | 2 | 1 | 0 | Plant response rating, Ducksalad [1, 8]: 2; Plant response rating, Rice (rice (Oryza sativa); [8]): 4; Plant response rating, Barnyardgrass [2, 8]: 4; Plant response rating, S. Flatsedge [3, 8]: 3; Plant response rating, Wild oats (wild oat (Avena fatua); Rate 500 g/ha, Postemergence): 1; Plant response rating, Wild oats (wild oat (Avena fatua); Rate 500 g/ha, Preemergence): 3; Plant response rating, Blackgrass ([4]; Rate 125 g/ha, Postemergence): 1; Blackgrass plant response rating ([4]; Rate 125 g/ha, Preemergence): 0; Plant response rating, Blackgrass ([4]; Rate 250 g/ha, Postemergence): 2; Plant response rating, Blackgrass ([4]; Rate 250 g/ha, Preemergence): 2; Plant response rating, Blackgrass ([4]; Rate 500 g/ha, Postemergence): 3; Plant response rating, Blackgrass ([4]; Rate 500 g/ha, Preemergence): 4
CCc1cnc(-c2ccc(C(F)(F)F)cc2)nc1Cc1cccc(C(F)(F)F)c1 [Compound 22] | 3 | 4 | 6 | 3 | 4 | 5 | 4 | 5 | 6 | 3 | 8 | 9 | 5 | 7 | 6 | 8 | 8 | 9 | 5 | 8 | Plant response rating, Blackgrass ([4]; Rate 125 g/ha, Postemergence): 8; Blackgrass plant response rating ([4]; Rate 125 g/ha, Preemergence): 9; Plant response rating, Blackgrass ([4]; Rate 250 g/ha, Postemergence): 9; Plant response rating, Blackgrass ([4]; Rate 250 g/ha, Preemergence): 9
